According to ChEMBL document CHEMBL1146635 (Bioorg Med Chem Lett, 2003):

test system: Human immunodeficiency virus 1; experiment: Viral spread inhibitory concentration against HIV-1 strain K-60C in MT-4 human T-lymphoid cells; type: functional; conditions: Human immunodeficiency virus 1, T-lymphoid; read-out: CIC95

Compound	IC95 [nM]
O=C(N[C@H]1c2ccccc2OC[C@H]1O)[C@H](Cc1cccnc1)C[C@H](O)CN1CCN(Cc2ccn(-c3cccc(C(F)(F)F)c3)c2)C[C@H]1C(=O)NCC(F)(F)F	31
Cc1ccccc1-n1ccc(CN2CCN(C[C@@H](O)C[C@@H](Cc3cccnc3)C(=O)N[C@H]3c4ccccc4OC[C@H]3O)[C@H](C(=O)NCC(F)(F)F)C2)c1	125
Cc1cccc(-n2ccc(CN3CCN(C[C@@H](O)C[C@@H](Cc4cccnc4)C(=O)N[C@H]4c5ccccc5OC[C@H]4O)[C@H](C(=O)NCC(F)(F)F)C3)c2)c1	62
Cc1ccc(-n2ccc(CN3CCN(C[C@@H](O)C[C@@H](Cc4cccnc4)C(=O)N[C@H]4c5ccccc5OC[C@H]4O)[C@H](C(=O)NCC(F)(F)F)C3)c2)cc1	15
N#Cc1ccc(-n2ccc(CN3CCN(C[C@@H](O)C[C@@H](Cc4cccnc4)C(=O)N[C@H]4c5ccccc5OC[C@H]4O)[C@H](C(=O)NCC(F)(F)F)C3)c2)cc1	125
O=C(N[C@H]1c2ccccc2OC[C@H]1O)[C@H](Cc1cccnc1)C[C@H](O)CN1CCN(Cc2ccn(-c3ccccc3C(F)(F)F)c2)C[C@H]1C(=O)NCC(F)(F)F	500
O=C(N[C@H]1c2ccccc2OC[C@H]1O)[C@H](Cc1cccnc1)C[C@H](O)CN1CCN(Cc2ccn(-c3ccc(Cl)c(Cl)c3)c2)C[C@H]1C(=O)NCC(F)(F)F	31
N#Cc1cccc(-n2ccc(CN3CCN(C[C@@H](O)C[C@@H](Cc4cccnc4)C(=O)N[C@H]4c5ccccc5OC[C@H]4O)[C@H](C(=O)NCC(F)(F)F)C3)c2)c1	62
O=C(N[C@H]1c2ccccc2OC[C@H]1O)[C@H](Cc1cccnc1)C[C@H](O)CN1CCN(Cc2ccn(-c3ccc(F)cc3)c2)C[C@H]1C(=O)NCC(F)(F)F	15
O=C(N[C@H]1c2ccccc2OC[C@H]1O)[C@H](Cc1cccnc1)C[C@H](O)CN1CCN(Cc2ccn(-c3ccc(C(F)(F)F)cc3)c2)C[C@H]1C(=O)NCC(F)(F)F	15
O=C(N[C@H]1c2ccccc2OC[C@H]1O)[C@H](Cc1cccnc1)C[C@H](O)CN1CCN(Cc2ccn(-c3ccccc3Cl)c2)C[C@H]1C(=O)NCC(F)(F)F	62

test system: Human immunodeficiency virus 1; experiment: Viral spread inhibitory concentration against HIV-1 strain NL4-3 in MT-4 human T-lymphoid cells; type: functional; conditions: Human immunodeficiency virus 1, T-lymphoid; read-out: CIC95

Compound	IC95 [nM]
O=C(N[C@H]1c2ccccc2OC[C@H]1O)[C@H](Cc1cccnc1)C[C@H](O)CN1CCN(Cc2ccn(-c3cccc(C(F)(F)F)c3)c2)C[C@H]1C(=O)NCC(F)(F)F	15
Cc1ccccc1-n1ccc(CN2CCN(C[C@@H](O)C[C@@H](Cc3cccnc3)C(=O)N[C@H]3c4ccccc4OC[C@H]3O)[C@H](C(=O)NCC(F)(F)F)C2)c1	≤ 8
Cc1cccc(-n2ccc(CN3CCN(C[C@@H](O)C[C@@H](Cc4cccnc4)C(=O)N[C@H]4c5ccccc5OC[C@H]4O)[C@H](C(=O)NCC(F)(F)F)C3)c2)c1	≤ 8
Cc1ccc(-n2ccc(CN3CCN(C[C@@H](O)C[C@@H](Cc4cccnc4)C(=O)N[C@H]4c5ccccc5OC[C@H]4O)[C@H](C(=O)NCC(F)(F)F)C3)c2)cc1	15
N#Cc1ccc(-n2ccc(CN3CCN(C[C@@H](O)C[C@@H](Cc4cccnc4)C(=O)N[C@H]4c5ccccc5OC[C@H]4O)[C@H](C(=O)NCC(F)(F)F)C3)c2)cc1	62
O=C(N[C@H]1c2ccccc2OC[C@H]1O)[C@H](Cc1cccnc1)C[C@H](O)CN1CCN(Cc2ccn(-c3ccccc3C(F)(F)F)c2)C[C@H]1C(=O)NCC(F)(F)F	38
O=C(N[C@H]1c2ccccc2OC[C@H]1O)[C@H](Cc1cccnc1)C[C@H](O)CN1CCN(Cc2ccn(-c3ccc(Cl)c(Cl)c3)c2)C[C@H]1C(=O)NCC(F)(F)F	15
N#Cc1cccc(-n2ccc(CN3CCN(C[C@@H](O)C[C@@H](Cc4cccnc4)C(=O)N[C@H]4c5ccccc5OC[C@H]4O)[C@H](C(=O)NCC(F)(F)F)C3)c2)c1	62
O=C(N[C@H]1c2ccccc2OC[C@H]1O)[C@H](Cc1cccnc1)C[C@H](O)CN1CCN(Cc2ccn(-c3ccc(F)cc3)c2)C[C@H]1C(=O)NCC(F)(F)F	15
O=C(N[C@H]1c2ccccc2OC[C@H]1O)[C@H](Cc1cccnc1)C[C@H](O)CN1CCN(Cc2ccn(-c3ccc(C(F)(F)F)cc3)c2)C[C@H]1C(=O)NCC(F)(F)F	15
O=C(N[C@H]1c2ccccc2OC[C@H]1O)[C@H](Cc1cccnc1)C[C@H](O)CN1CCN(Cc2ccn(-c3ccccc3Cl)c2)C[C@H]1C(=O)NCC(F)(F)F	≤ 8

test system: Human immunodeficiency virus 1; experiment: Viral spread inhibitory concentration against HIV-1 strain Q-60C in MT-4 human T-lymphoid cells; type: functional; conditions: Human immunodeficiency virus 1, T-lymphoid; read-out: CIC95

Compound	IC95 [nM]
O=C(N[C@H]1c2ccccc2OC[C@H]1O)[C@H](Cc1cccnc1)C[C@H](O)CN1CCN(Cc2ccn(-c3cccc(C(F)(F)F)c3)c2)C[C@H]1C(=O)NCC(F)(F)F	≤ 8
Cc1ccccc1-n1ccc(CN2CCN(C[C@@H](O)C[C@@H](Cc3cccnc3)C(=O)N[C@H]3c4ccccc4OC[C@H]3O)[C@H](C(=O)NCC(F)(F)F)C2)c1	31
Cc1cccc(-n2ccc(CN3CCN(C[C@@H](O)C[C@@H](Cc4cccnc4)C(=O)N[C@H]4c5ccccc5OC[C@H]4O)[C@H](C(=O)NCC(F)(F)F)C3)c2)c1	≤ 8
Cc1ccc(-n2ccc(CN3CCN(C[C@@H](O)C[C@@H](Cc4cccnc4)C(=O)N[C@H]4c5ccccc5OC[C@H]4O)[C@H](C(=O)NCC(F)(F)F)C3)c2)cc1	≤ 8
N#Cc1ccc(-n2ccc(CN3CCN(C[C@@H](O)C[C@@H](Cc4cccnc4)C(=O)N[C@H]4c5ccccc5OC[C@H]4O)[C@H](C(=O)NCC(F)(F)F)C3)c2)cc1	31
O=C(N[C@H]1c2ccccc2OC[C@H]1O)[C@H](Cc1cccnc1)C[C@H](O)CN1CCN(Cc2ccn(-c3ccccc3C(F)(F)F)c2)C[C@H]1C(=O)NCC(F)(F)F	500
O=C(N[C@H]1c2ccccc2OC[C@H]1O)[C@H](Cc1cccnc1)C[C@H](O)CN1CCN(Cc2ccn(-c3ccc(Cl)c(Cl)c3)c2)C[C@H]1C(=O)NCC(F)(F)F	≤ 8
N#Cc1cccc(-n2ccc(CN3CCN(C[C@@H](O)C[C@@H](Cc4cccnc4)C(=O)N[C@H]4c5ccccc5OC[C@H]4O)[C@H](C(=O)NCC(F)(F)F)C3)c2)c1	≤ 31
O=C(N[C@H]1c2ccccc2OC[C@H]1O)[C@H](Cc1cccnc1)C[C@H](O)CN1CCN(Cc2ccn(-c3ccc(F)cc3)c2)C[C@H]1C(=O)NCC(F)(F)F	15
O=C(N[C@H]1c2ccccc2OC[C@H]1O)[C@H](Cc1cccnc1)C[C@H](O)CN1CCN(Cc2ccn(-c3ccc(C(F)(F)F)cc3)c2)C[C@H]1C(=O)NCC(F)(F)F	≤ 8
O=C(N[C@H]1c2ccccc2OC[C@H]1O)[C@H](Cc1cccnc1)C[C@H](O)CN1CCN(Cc2ccn(-c3ccccc3Cl)c2)C[C@H]1C(=O)NCC(F)(F)F	31

test system: MT4; experiment: Viral spread inhibitory concentration against HIV-1 strain V-18C in MT-4 human T-lymphoid cells; type: functional; conditions: read-out: CIC95

Compound	IC95 [nM]
Cc1ccccc1-n1ccc(CN2CCN(C[C@@H](O)C[C@@H](Cc3cccnc3)C(=O)N[C@H]3c4ccccc4OC[C@H]3O)[C@H](C(=O)NCC(F)(F)F)C2)c1	31
Cc1cccc(-n2ccc(CN3CCN(C[C@@H](O)C[C@@H](Cc4cccnc4)C(=O)N[C@H]4c5ccccc5OC[C@H]4O)[C@H](C(=O)NCC(F)(F)F)C3)c2)c1	≤ 8
Cc1ccc(-n2ccc(CN3CCN(C[C@@H](O)C[C@@H](Cc4cccnc4)C(=O)N[C@H]4c5ccccc5OC[C@H]4O)[C@H](C(=O)NCC(F)(F)F)C3)c2)cc1	15
O=C(N[C@H]1c2ccccc2OC[C@H]1O)[C@H](Cc1cccnc1)C[C@H](O)CN1CCN(Cc2ccn(-c3ccc(Cl)c(Cl)c3)c2)C[C@H]1C(=O)NCC(F)(F)F	15
O=C(N[C@H]1c2ccccc2OC[C@H]1O)[C@H](Cc1cccnc1)C[C@H](O)CN1CCN(Cc2ccn(-c3ccccc3Cl)c2)C[C@H]1C(=O)NCC(F)(F)F	31

molecular target: Human immunodeficiency virus type 1 protease (Human immunodeficiency virus 1, UniProt Q72874); experiment: In vitro inhibition of HIV-1 protease (NL4-3 strain).; conditions: not given

Compound	IC50 [nM]
O=C(N[C@H]1c2ccccc2OC[C@H]1O)[C@H](Cc1cccnc1)C[C@H](O)CN1CCN(Cc2ccn(-c3cccc(C(F)(F)F)c3)c2)C[C@H]1C(=O)NCC(F)(F)F	0.05
Cc1ccccc1-n1ccc(CN2CCN(C[C@@H](O)C[C@@H](Cc3cccnc3)C(=O)N[C@H]3c4ccccc4OC[C@H]3O)[C@H](C(=O)NCC(F)(F)F)C2)c1	0.16
Cc1cccc(-n2ccc(CN3CCN(C[C@@H](O)C[C@@H](Cc4cccnc4)C(=O)N[C@H]4c5ccccc5OC[C@H]4O)[C@H](C(=O)NCC(F)(F)F)C3)c2)c1	0.1
Cc1ccc(-n2ccc(CN3CCN(C[C@@H](O)C[C@@H](Cc4cccnc4)C(=O)N[C@H]4c5ccccc5OC[C@H]4O)[C@H](C(=O)NCC(F)(F)F)C3)c2)cc1	0.06
N#Cc1ccc(-n2ccc(CN3CCN(C[C@@H](O)C[C@@H](Cc4cccnc4)C(=O)N[C@H]4c5ccccc5OC[C@H]4O)[C@H](C(=O)NCC(F)(F)F)C3)c2)cc1	0.1
O=C(N[C@H]1c2ccccc2OC[C@H]1O)[C@H](Cc1cccnc1)C[C@H](O)CN1CCN(Cc2ccn(-c3ccccc3C(F)(F)F)c2)C[C@H]1C(=O)NCC(F)(F)F	1.32
O=C(N[C@H]1c2ccccc2OC[C@H]1O)[C@H](Cc1cccnc1)C[C@H](O)CN1CCN(Cc2ccn(-c3ccc(Cl)c(Cl)c3)c2)C[C@H]1C(=O)NCC(F)(F)F	0.02
N#Cc1cccc(-n2ccc(CN3CCN(C[C@@H](O)C[C@@H](Cc4cccnc4)C(=O)N[C@H]4c5ccccc5OC[C@H]4O)[C@H](C(=O)NCC(F)(F)F)C3)c2)c1	0.15
O=C(N[C@H]1c2ccccc2OC[C@H]1O)[C@H](Cc1cccnc1)C[C@H](O)CN1CCN(Cc2ccn(-c3ccc(F)cc3)c2)C[C@H]1C(=O)NCC(F)(F)F	0.05
O=C(N[C@H]1c2ccccc2OC[C@H]1O)[C@H](Cc1cccnc1)C[C@H](O)CN1CCN(Cc2ccn(-c3ccc(C(F)(F)F)cc3)c2)C[C@H]1C(=O)NCC(F)(F)F	0.04
O=C(N[C@H]1c2ccccc2OC[C@H]1O)[C@H](Cc1cccnc1)C[C@H](O)CN1CCN(Cc2ccn(-c3ccccc3Cl)c2)C[C@H]1C(=O)NCC(F)(F)F	0.18
